Reference: ChEMBL document CHEMBL3351479, “Novel acylureidoindolin-2-one derivatives as dual Aurora B/FLT3 inhibitors for the treatment of acute myeloid leukemia” (Eur J Med Chem, 2014)
Calls of active or inactive are those of the source. The rule behind the calls is not given here.

What was measured:
[1] = molecular target: Vascular endothelial growth factor receptor 2 (Homo sapiens) (UniProt P35968); test: Inhibition of KDR/VEGFR2 (unknown origin) at 1 uM
[2] = molecular target: Tyrosine-protein kinase Lyn (Homo sapiens) (UniProt P07948); test: Inhibition of Lyn (unknown origin) at 1 uM
[3] = molecular target: Dual specificity mitogen-activated protein kinase kinase 1 (Homo sapiens) (UniProt Q02750); test: Inhibition of MEK1/MAP2K1 (unknown origin) at 1 uM
[4] = molecular target: Serine/threonine-protein kinase mTOR (Homo sapiens) (UniProt P42345); test: Inhibition of mTOR/FRAP1 (unknown origin) at 1 uM
[5] = molecular target: Platelet-derived growth factor receptor alpha (Homo sapiens) (UniProt P16234); test: Inhibition of PDGFRalpha (unknown origin) at 1 uM
[6] = molecular target: Platelet-derived growth factor receptor beta (Homo sapiens) (UniProt P09619); test: Inhibition of PDGFRbeta (unknown origin) at 1 uM
[7] = molecular target: Serine/threonine-protein kinase PLK1 (Homo sapiens) (UniProt P53350); test: Inhibition of Plk1 (unknown origin) at 1 uM
[8] = molecular target: Rho-associated protein kinase 1 (Homo sapiens) (UniProt Q13464); test: Inhibition of ROCK1 (unknown origin) at 1 uM
[9] = molecular target: Angiopoietin-1 receptor (Homo sapiens) (UniProt Q02763); test: Inhibition of TEK/Tie-2 (unknown origin) at 1 uM
[10] = tested on: MOLM-13; test: Antitumor activity against human MOLM13 cells xenografted in ip dosed BALB/c AnN.Cg-Foxnlnu/CrlNarl mouse assessed as reduction in tumor growth treated once daily for 16 days; format: functional, organism-based
[11] = molecular target: Receptor-type tyrosine-protein kinase FLT3 (Homo sapiens) (UniProt P36888); test: Inhibition of Aurora B/FLT3 in human MOLM13 cells assessed as inhibition of STAT5 phosphorylation after 4 hrs by Dot-blot analysis; format: cell-based; conditions: MOLM-13
[12] = molecular target: Receptor-type tyrosine-protein kinase FLT3 (Homo sapiens) (UniProt P36888); test: Inhibition of Aurora B/FLT3 in human MOLM13 cells assessed as inhibition of HH3 phosphorylation after 4 hrs by Dot-blot analysis; format: cell-based; conditions: MOLM-13
[13] = tested on: THP-1; test: Induction of apoptosis in human THP1 cells assessed as caspase 3 activation after 24 hrs; format: functional, cell-based
[14] = tested on: THP-1; test: Induction of apoptosis in human THP1 cells assessed as caspase 8 activation after 24 hrs; format: functional, cell-based
[15] = tested on: MOLM-13; test: Induction of apoptosis in human MOLM13 cells assessed as caspase 3 activation after 24 hrs; format: functional, cell-based
[16] = tested on: MOLM-13; test: Induction of apoptosis in human MOLM13 cells assessed as caspase 8 activation after 24 hrs; format: functional, cell-based
[17] = tested on: A549; test: Induction of apoptosis in human A549 cells assessed as caspase 8 activation after 24 hrs; format: functional, cell-based
[18] = tested on: MOLM-13; test: Induction of apoptosis in human MOLM13 cells assessed as increase in FasL level up to 20 uM; format: functional, cell-based
[19] = molecular target: RAC-alpha serine/threonine-protein kinase (Homo sapiens) (UniProt P31749); test: Inhibition of AKT1 (unknown origin) at 1 uM
[20] = molecular target: Tyrosine-protein kinase ABL1 (Homo sapiens) (UniProt P00519); test: Inhibition of ABL1 (unknown origin) at 1 uM
[21] = molecular target: Aurora kinase A (Homo sapiens) (UniProt O14965); test: Inhibition of Aurora A (unknown origin) at 1 uM
[22] = molecular target: Aurora kinase C (Homo sapiens) (UniProt Q9UQB9); test: Inhibition of Aurora C (unknown origin) at 1 uM
[23] = molecular target: Serine/threonine-protein kinase B-raf (Homo sapiens) (UniProt P15056); test: Inhibition of BRAF (unknown origin) at 1 uM
[24] = molecular target: Hepatocyte growth factor receptor (Homo sapiens) (UniProt P08581); test: Inhibition of c-Met (unknown origin) at 1 uM
[25] = molecular target: Proto-oncogene tyrosine-protein kinase Src (Homo sapiens) (UniProt P12931); test: Inhibition of c-Src (unknown origin) at 1 uM
[26] = molecular target: Serine/threonine-protein kinase Chk1 (Homo sapiens) (UniProt O14757); test: Inhibition of CHK1 (unknown origin) at 1 uM
[27] = molecular target: Epidermal growth factor receptor (Homo sapiens) (UniProt P00533); test: Inhibition of EGFR (unknown origin) at 1 uM
[28] = molecular target: Receptor tyrosine-protein kinase erbB-2 (Homo sapiens) (UniProt P04626); test: Inhibition of ERBB2/Her2 (unknown origin) at 1 uM
[29] = molecular target: Fibroblast growth factor receptor 1 (Homo sapiens) (UniProt P11362); test: Inhibition of FGFR1 (unknown origin) at 1 uM
[30] = molecular target: Insulin-like growth factor 1 receptor (Homo sapiens) (UniProt P08069); test: Inhibition of IGF1R (unknown origin) at 1 uM
[31] = molecular target: Tyrosine-protein kinase JAK2 (Homo sapiens) (UniProt O60674); test: Inhibition of JAK2 (unknown origin) at 1 uM
[32] = molecular target: Mitogen-activated protein kinase 9 (Homo sapiens) (UniProt P45984); test: Inhibition of JNK2 (unknown origin) at 1 uM
[33] = molecular target: T1, Tyrosine-protein kinase Lck (Homo sapiens, UniProt P06239); conditions: 1 uM
Description: Inhibition of Lck (unknown origin) at 1 uM

[34] = molecular target: Mast/stem cell growth factor receptor Kit (Homo sapiens, UniProt P10721); test: Inhibition of c-Kit (unknown origin)
[35] = molecular target: T1, Tyrosine-protein kinase Lck; test: Inhibition of Lck (unknown origin)
[36] = molecular target: Cytochrome P450 2C9 (Homo sapiens, UniProt P11712); test: Inhibition of CYP2C9 (unknown origin) using Vivid OOMR substrate; format: ADME
[37] = molecular target: Cytochrome P450 2C19 (Homo sapiens, UniProt P33261); test: Inhibition of CYP2C19 (unknown origin) using 3-cyano-7-ethoxycoumarin substrate; format: ADME
[38] = molecular target: Cytochrome P450 2D6 (Homo sapiens, UniProt P10635); test: Inhibition of CYP2D6 (unknown origin) using 3-cyano-7-ethoxycoumarin substrate; format: ADME
[39] = molecular target: Cytochrome P450 3A4 (Homo sapiens, UniProt P08684); test: Inhibition of CYP3A4 (unknown origin) using Vivid OOMR substrate; format: ADME
[40] = molecular target: Voltage-gated inwardly rectifying potassium channel KCNH2 (Homo sapiens, UniProt Q12809); test: Inhibition of human ERG channel after 3 hrs by fluorescence assay
[41] = tested on: Vero; test: Cytotoxicity against african green monkey Vero cells at 10 uM after 48 hrs by MTT assay; format: cell-based; conditions: chlorocebus sabaeus
[42] = Volume of distribution at steady state in BALB/c mouse at 2 mg/kg, iv; format: ADME, organism-based; set-up: dose 2 mg/kg, route intravenous; conditions: in vivo, read-out: Vdss
[43] = Clearance in BALB/c mouse at 2 mg/kg, iv; format: ADME, organism-based; set-up: dose 2 mg/kg, route intravenous; conditions: in vivo
[44] = Half life in BALB/c mouse at 2 mg/kg, iv; format: ADME, organism-based; set-up: dose 2 mg/kg, route intravenous; conditions: in vivo
[45] = Half life in BALB/c mouse at 10 mg/kg, po; format: ADME, organism-based; set-up: dose 10 mg/kg, route oral; conditions: in vivo
[46] = Tmax in BALB/c mouse at 2 mg/kg, iv; format: ADME, organism-based; set-up: dose 2 mg/kg, route intravenous; conditions: in vivo
[47] = Tmax in BALB/c mouse at 10 mg/kg, po; format: ADME, organism-based; set-up: dose 10 mg/kg, route oral; conditions: in vivo
[48] = Cmax in BALB/c mouse at 2 mg/kg, iv; format: ADME, organism-based; set-up: dose 2 mg/kg, route intravenous; conditions: in vivo
[49] = Cmax in BALB/c mouse at 10 mg/kg, po; format: ADME, organism-based; set-up: dose 10 mg/kg, route oral; conditions: in vivo
[50] = AUC (0 to 24 hrs) in BALB/c mouse at 2 mg/kg, iv; format: ADME, organism-based; set-up: time < 24 hr, dose 2 mg/kg, route intravenous; conditions: plasma
[51] = AUC (0 to 24 hrs) in BALB/c mouse at 10 mg/kg, po; format: ADME, organism-based; set-up: time < 24 hr, dose 10 mg/kg, route oral; conditions: plasma
[52] = Oral bioavailability in BALB/c mouse at 10 mg/kg; format: ADME, organism-based; conditions: in vivo
[53] = tested on: MOLM-13; test: Antitumor activity against human MOLM13 cells xenografted in BALB/c AnN.Cg-Foxnlnu/CrlNarl mouse assessed as reduction in tumor growth at 10 mg/kg, ip once daily for 16 days; format: functional; conditions: MOLM-13, ip, 384 h, route intraperitoneal
[54] = tested on: Mus musculus; test: Toxicity in BALB/c AnN.Cg-Foxnlnu/CrlNarl mouse xenografted with human MOLM13 cells assessed as body weight loss at 10 mg/kg, ip administered qd for 16 days; format: organism-based, MOLM-13; set-up: dose 10 mg/kg, route intraperitoneal; conditions: in vivo, 384 h
[55] = tested on: MOLM-13; test: Antitumor activity against human MOLM13 cells xenografted in BALB/cAnN.Cg-Foxnlnu/CrlNarl mouse assessed as reduction in tumor mass at 10 mg/kg, ip once daily for 16 days; format: functional; conditions: MOLM-13, ip, 384 h, route intraperitoneal
[56] = Toxicity in BALB/c AnN.Cg-Foxnlnu/CrlNarl mouse xenografted with human MOLM13 cells at 10 mg/kg, ip administered qd for 16 days; format: organism-based, MOLM-13; set-up: dose 10 mg/kg, route intraperitoneal; conditions: in vivo
[57] = Therapeutic index, ratio of LD50 for BALB/c AnN.Cg-Foxnlnu/CrlNarl mouse to ED50 for antitumor activity against human MOLM13 cells xenografted in BALB/c AnN.Cg-Foxnlnu/CrlNarl mouse; format: cell-based, MOLM-13; conditions: in vivo, read-out: Ratio LD50/ED50
[58] = Ratio of solubility in PBS to solubility in DMSO; format: physicochemical
[59] = tested on: MV4-11; test: Cytotoxicity against human MV4-11 cells assessed as cell viability after 48 hrs by MTT assay; format: functional, cell-based; conditions: Homo sapiens, MV4-11, 48 h
[60] = tested on: MOLM-13; test: Cytotoxicity against human MOLM13 cells assessed as cell viability after 48 hrs by MTT assay; format: functional, cell-based; conditions: MOLM-13, 48 h
[61] = tested on: THP-1; test: Cytotoxicity against human THP1 cells assessed as cell viability after 48 hrs by MTT assay; format: functional, cell-based; conditions: Homo sapiens, THP-1, 48 h
[62] = Cytotoxicity against human HL60 cells assessed as cell viability after 48 hrs by MTT assay; format: functional, cell-based; conditions: HL-60, 48 h
[63] = Permeability coefficient of the compound at pH 7.4 by PAMPA-GIT assay; format: ADME; conditions: read-out: Peff
[64] = molecular target: Cytochrome P450 1A2 (Homo sapiens) (UniProt P05177); test: Inhibition of CYP1A2 (unknown origin) using 3-cyano-7-ethoxycoumarin substrate

Receptor-type tyrosine-protein kinase FLT3 (Homo sapiens), sequence (P36888 whole entry): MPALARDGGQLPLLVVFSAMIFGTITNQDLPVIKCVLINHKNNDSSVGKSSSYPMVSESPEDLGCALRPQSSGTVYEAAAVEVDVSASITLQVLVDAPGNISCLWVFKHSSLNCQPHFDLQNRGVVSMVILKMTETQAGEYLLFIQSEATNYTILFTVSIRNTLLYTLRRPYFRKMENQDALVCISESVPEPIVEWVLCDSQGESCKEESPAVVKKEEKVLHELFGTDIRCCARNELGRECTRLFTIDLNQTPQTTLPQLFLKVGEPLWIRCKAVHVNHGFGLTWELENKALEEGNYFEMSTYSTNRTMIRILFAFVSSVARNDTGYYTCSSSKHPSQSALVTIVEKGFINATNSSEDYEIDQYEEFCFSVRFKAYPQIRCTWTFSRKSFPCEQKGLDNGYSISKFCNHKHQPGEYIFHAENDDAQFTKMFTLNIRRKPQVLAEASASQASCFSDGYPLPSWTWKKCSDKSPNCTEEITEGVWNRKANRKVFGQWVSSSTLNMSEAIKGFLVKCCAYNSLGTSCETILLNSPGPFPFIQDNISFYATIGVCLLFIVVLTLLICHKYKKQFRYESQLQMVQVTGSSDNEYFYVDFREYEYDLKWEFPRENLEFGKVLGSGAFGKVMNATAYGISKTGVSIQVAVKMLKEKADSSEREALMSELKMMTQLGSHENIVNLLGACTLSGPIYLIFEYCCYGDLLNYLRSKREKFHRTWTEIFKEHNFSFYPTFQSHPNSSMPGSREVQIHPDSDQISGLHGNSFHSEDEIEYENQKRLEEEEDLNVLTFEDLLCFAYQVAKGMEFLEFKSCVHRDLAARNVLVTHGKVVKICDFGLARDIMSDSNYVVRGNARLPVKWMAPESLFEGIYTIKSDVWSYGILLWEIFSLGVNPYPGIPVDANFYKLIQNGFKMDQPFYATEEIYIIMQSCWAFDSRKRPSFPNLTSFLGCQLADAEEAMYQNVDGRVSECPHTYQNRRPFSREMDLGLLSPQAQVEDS
Tyrosine-protein kinase JAK2 (Homo sapiens), sequence (O60674 whole entry): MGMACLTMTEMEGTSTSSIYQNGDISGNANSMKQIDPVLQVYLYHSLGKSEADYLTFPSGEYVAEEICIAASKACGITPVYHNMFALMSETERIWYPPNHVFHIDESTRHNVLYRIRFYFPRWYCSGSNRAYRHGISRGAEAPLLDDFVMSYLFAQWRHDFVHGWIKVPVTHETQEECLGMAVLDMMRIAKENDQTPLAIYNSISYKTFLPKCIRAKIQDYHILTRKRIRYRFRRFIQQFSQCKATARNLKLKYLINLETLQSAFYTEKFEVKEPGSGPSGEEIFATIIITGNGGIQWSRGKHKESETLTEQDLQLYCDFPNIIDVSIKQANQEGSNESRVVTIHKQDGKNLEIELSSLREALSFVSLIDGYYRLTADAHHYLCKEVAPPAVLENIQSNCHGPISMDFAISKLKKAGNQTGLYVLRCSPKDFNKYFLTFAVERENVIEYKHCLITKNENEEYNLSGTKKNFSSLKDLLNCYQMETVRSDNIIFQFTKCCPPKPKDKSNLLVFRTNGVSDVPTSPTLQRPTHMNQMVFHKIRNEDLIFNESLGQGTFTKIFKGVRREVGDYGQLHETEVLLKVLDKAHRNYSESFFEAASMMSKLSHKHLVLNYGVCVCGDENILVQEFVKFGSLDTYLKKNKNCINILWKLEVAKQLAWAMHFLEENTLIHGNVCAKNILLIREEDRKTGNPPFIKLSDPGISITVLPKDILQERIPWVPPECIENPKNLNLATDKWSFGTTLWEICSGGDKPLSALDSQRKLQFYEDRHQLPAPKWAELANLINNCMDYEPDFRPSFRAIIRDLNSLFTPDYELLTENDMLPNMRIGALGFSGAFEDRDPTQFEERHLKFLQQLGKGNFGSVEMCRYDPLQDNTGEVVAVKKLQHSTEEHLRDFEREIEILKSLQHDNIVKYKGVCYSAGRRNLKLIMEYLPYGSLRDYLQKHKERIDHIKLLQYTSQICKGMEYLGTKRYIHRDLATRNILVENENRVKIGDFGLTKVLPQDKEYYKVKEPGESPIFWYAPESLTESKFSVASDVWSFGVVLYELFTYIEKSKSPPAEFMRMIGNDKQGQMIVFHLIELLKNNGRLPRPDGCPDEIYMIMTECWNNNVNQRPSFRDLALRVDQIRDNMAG
Receptor tyrosine-protein kinase erbB-2 (Homo sapiens), sequence (P04626 whole entry): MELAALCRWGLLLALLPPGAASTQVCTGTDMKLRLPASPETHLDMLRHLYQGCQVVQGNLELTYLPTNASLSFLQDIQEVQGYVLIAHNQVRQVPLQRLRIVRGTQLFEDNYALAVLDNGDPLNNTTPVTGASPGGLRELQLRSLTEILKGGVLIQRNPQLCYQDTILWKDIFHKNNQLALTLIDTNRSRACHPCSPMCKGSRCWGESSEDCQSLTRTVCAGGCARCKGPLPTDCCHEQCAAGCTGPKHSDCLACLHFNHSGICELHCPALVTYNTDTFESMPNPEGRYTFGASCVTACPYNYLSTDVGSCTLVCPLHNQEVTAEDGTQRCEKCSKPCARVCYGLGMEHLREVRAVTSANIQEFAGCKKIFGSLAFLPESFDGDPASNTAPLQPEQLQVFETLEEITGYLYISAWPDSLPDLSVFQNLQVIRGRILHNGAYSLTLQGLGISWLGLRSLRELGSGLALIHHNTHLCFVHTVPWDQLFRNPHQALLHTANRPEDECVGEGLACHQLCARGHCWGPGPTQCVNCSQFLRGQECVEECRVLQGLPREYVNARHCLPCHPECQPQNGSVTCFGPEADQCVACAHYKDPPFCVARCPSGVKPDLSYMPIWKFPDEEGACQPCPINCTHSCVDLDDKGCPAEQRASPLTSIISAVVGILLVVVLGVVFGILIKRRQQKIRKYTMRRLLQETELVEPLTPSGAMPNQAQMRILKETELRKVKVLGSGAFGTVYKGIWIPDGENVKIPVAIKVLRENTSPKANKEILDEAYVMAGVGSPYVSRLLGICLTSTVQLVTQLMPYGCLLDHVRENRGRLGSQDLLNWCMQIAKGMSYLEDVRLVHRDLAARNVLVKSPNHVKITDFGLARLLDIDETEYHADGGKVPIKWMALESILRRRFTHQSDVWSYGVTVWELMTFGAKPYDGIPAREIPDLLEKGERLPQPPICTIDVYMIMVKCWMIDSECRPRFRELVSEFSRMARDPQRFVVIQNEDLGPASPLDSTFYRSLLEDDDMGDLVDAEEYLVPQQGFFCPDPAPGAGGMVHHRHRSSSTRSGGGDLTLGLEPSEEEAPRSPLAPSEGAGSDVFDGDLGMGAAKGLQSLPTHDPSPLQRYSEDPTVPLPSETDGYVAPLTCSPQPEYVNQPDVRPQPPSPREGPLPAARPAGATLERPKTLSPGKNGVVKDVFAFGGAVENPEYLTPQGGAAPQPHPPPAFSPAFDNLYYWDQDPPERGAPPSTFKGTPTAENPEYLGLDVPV
Mitogen-activated protein kinase 9 (Homo sapiens), sequence (P45984 whole entry, looked up): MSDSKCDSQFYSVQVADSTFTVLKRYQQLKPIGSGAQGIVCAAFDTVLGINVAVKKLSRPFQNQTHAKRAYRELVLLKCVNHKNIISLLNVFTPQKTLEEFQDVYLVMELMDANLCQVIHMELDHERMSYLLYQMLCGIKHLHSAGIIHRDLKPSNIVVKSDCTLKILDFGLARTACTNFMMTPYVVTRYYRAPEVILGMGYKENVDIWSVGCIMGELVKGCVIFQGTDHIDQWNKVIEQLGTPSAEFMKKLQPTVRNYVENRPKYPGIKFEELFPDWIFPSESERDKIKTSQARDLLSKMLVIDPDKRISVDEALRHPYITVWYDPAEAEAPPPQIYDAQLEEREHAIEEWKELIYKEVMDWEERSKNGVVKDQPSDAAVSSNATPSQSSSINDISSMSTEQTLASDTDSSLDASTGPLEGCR
Mast/stem cell growth factor receptor Kit, sequence (P10721 whole entry): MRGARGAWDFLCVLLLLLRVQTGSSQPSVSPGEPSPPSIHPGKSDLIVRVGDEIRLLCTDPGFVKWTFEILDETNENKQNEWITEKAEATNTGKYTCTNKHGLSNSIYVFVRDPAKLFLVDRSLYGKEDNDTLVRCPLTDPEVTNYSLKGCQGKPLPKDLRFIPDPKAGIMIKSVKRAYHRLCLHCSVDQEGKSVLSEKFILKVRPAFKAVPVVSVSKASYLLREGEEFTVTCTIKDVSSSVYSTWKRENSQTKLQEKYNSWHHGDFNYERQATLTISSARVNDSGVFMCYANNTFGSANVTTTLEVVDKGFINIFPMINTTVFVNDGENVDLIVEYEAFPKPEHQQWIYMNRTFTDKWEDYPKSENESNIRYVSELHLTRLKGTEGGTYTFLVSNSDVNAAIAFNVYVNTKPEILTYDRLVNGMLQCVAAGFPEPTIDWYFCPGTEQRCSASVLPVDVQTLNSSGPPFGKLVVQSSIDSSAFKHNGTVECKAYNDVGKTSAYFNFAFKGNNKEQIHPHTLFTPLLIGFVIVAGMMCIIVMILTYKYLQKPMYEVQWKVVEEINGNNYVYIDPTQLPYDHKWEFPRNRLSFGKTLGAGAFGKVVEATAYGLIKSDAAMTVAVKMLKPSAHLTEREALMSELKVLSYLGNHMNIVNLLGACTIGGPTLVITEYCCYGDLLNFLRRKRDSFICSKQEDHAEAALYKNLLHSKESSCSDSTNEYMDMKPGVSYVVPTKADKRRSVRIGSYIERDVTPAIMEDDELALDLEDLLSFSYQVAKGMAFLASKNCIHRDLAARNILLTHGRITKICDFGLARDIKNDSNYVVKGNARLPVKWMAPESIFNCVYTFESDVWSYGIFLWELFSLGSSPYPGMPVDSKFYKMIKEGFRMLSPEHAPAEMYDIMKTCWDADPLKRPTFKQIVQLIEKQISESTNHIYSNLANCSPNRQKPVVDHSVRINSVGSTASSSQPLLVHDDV
Aurora kinase C (Homo sapiens), sequence (Q9UQB9 whole entry): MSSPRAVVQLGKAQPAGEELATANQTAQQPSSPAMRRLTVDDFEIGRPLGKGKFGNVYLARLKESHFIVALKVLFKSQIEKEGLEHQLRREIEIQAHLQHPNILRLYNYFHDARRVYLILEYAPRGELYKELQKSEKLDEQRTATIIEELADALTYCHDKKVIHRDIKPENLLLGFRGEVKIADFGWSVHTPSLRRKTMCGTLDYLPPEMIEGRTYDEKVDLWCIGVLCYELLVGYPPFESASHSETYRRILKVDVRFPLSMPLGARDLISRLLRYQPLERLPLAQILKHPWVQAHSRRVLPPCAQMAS

COc1ccc(C(=O)NC(=O)Nc2ccc3c(c2)NC(=O)/C3=C\c2[nH]c(C)c(C(=O)NCCN3CCCC3)c2C)c(F)c1 [listing 1 of 2 here]
inhibition [1]: 20% | inhibition [2]: 62% | inhibition [3]: 38% | inhibition [4]: inactive | inhibition [5]: 57% | inhibition [6]: 74% | inhibition [7]: 13% | inhibition [8]: 55% | inhibition [9]: 32% | inhibition [10]: Dose-dependent effect | inhibition [11]: Dose-dependent effect | inhibition [12]: Dose-dependent effect | Activity [13]: Dose-dependent effect | Activity [14]: Dose-dependent effect | Activity [15]: Dose-dependent effect | Activity [16]: Dose-dependent effect | Activity [17]: Dose-dependent effect | Activity [18]: Active | inhibition [19]: 40% | inhibition [20]: 65% | inhibition [21]: 21% | inhibition [22]: 20% | inhibition [23]: inactive | inhibition [24]: 40% | inhibition [25]: 20% | inhibition [26]: 18% | inhibition [27]: inactive | inhibition [28]: 2% | inhibition [29]: 23% | inhibition [30]: 10% | inhibition [31]: inactive | inhibition [32]: 32% | inhibition [33]: 97%

COc1ccc(C(=O)NC(=O)Nc2ccc3c(c2)NC(=O)/C3=C\c2[nH]c(C)c(C(=O)NCCN3CCCC3)c2C)c(F)c1 [listing 2 of 2 here]
IC50 [34]: 14 nM | IC50 [35]: 2.3 nM | IC50 [36]: > 10000 nM | IC50 [37]: > 10000 nM | IC50 [38]: > 10000 nM | IC50 [39]: > 10000 nM | IC50 [40]: 9670 nM | Activity [41]: Non-toxic | Vd [42]: 22.2 L/kg | clearance [43]: 8.33 mL/min/kg | half-life [44]: 27.6 h | half-life [45]: 8.6 h | Tmax [46]: 6 min | Tmax [47]: 1.7 h | Cmax [48]: 654 ng/mL | Cmax [49]: 20.9 ng/mL | AUC(0-t) at 24 h [50]: 1960 ng·h/mL | AUC(0-t) at 24 h [51]: 252 ng·h/mL | bioavailability [52]: 2.6% | inhibition in vivo at 10 mg/kg [53]: > 90% | Activity [54]: Non-toxic | inhibition in vivo at 10 mg/kg [55]: 95% | LD50 at 384 h [56]: > 20 mg/kg | selectivity ratio [57]: > 10 | Ratio [58]: 0.36 | IC50 [59]: 2.4 nM | IC50 [60]: 0.7 nM | IC50 [61]: 48.9 nM | IC50 [62]: 2.8 nM | Papp [63]: 1.78 ×10⁻⁶ cm/s | IC50 [64]: > 10000 nM
